Laboratory results from patent US20180296663A1 (priority 2015, published 2018).

Assays:
CD4+ T cells = tested on: CD4+ T cells; parameters: species or system BALB/c mice; conditions: mouse, in vivo
CD8+ T cells = tested on: CD8+ T cells; parameters: species or system Balb/c mice; conditions: mouse, in vivo

| Compound | frequencies of HA-specific IFN-γ+/TNF+ CD4+ T cells (CD4+ T cells) | frequencies of HA-specific IFN-γ+/TNF+CD4+ T cells (CD4+ T cells) | number of IFNγ/TNF double-positive multifunctional CD8+ T cells in the spleen (CD8+ T cells) |
| --- | --- | --- | --- |
| Nc1nc2c(ncn2[C@@H]2O[C@@H]3COP(=O)(O)O[C@H]4[C@@H](O)[C@H](n5cnc6c(=O)[nH]c(N)nc65)O[C@@H]4COP(=O)(O)O[C@H]3[C@H]2O)c(=O)[nH]1 [c-di-GMP, cyclic diguanylate monophosphate] | higher frequencies | higher frequencies |  |
| HMGB1: high mobility group protein (HMGB) compound, which may act as an endogenous immunomodulator |  |  | significant increase |
